How the values were obtained:
HI-MXT tumours = test: In vivo antitumour activity, hormone-insensitive mouse mammary carcinoma MXT (HI-MXT), tumour growth; conditions: 5 mg/kg intraperitoneally; for Tumour area (expressed as %): decrease (−) or increase (+) in HI-MXT tumour area vs control on the 21st day after grafting, 6 administrations
Method: The tests were carried out on models of:
hormone-insensitive mouse mammary carcinoma MXT (HI-MXT),
The model of mouse mammary adenocarcinoma MXT of Watson C. et al. (Cancer Res., 1977; […]: 3344-48), grafted onto B6D2F1/Jico mice aged from 4 to 6 weeks, is derived from the mammary gland milk ducts. Initially hormone-sensitive (HS-MXT model), the differentiated tumour develops in the direction of an undifferentiated hormone-insensitive tumour (HI-MXT model). […] This is the case, for example, with cyclophosphamide, etoposide or adriamycin.
When the MTD value of a product was determined, its in vivo antitumour activity was characterized at the MTD/2, MTD/4 and MTD/8 doses on the models of mammary adenocarcinoma of mouse origin HS-MXT and of mouse mammary carcinoma HI-MXT and on the model of subcutaneous lymphoma L 1210.
In all the examples presented below, whatever the model, the control condition is represented by a batch of 9 or 15 mice to which is administered, for 3 consecutive weeks and at the rate of 3 administrations (Monday, Wednesday and Friday) per week, a volume of 0.2 ml of physiological saline comprising the solvent used to dissolve the various compounds of formula (I) and (Ia) used.
i)—The tumour growth was evaluated by measuring twice weekly (Monday and Friday) the area of the grafted HS-MXT, HI-MXT or L 1210 tumours. This area is calculated by multiplying the value of the two greatest perpendicular axes of the tumour. The value of these axes is measured using a sliding caliper.
The influence of the two products CRL 8293 and CRL 8294 on the growth of HI-MXT tumours will be presented below by way of example. Each batch of mice grafted with HI-MXT tumours relating to a given experimental condition comprises 15 animals.
The product CRL 8293 is administered intraperitoneally. The first injection of the product is carried out on the seventh day postgrafting (D7) at the rate of 3 injections per week (Monday, Wednesday and Friday) for 3 consecutive weeks and at a dose of 5 mg/kg.
The product CRL 8294 is administered intraperitoneally. The first injection of the product is carried out on the seventh day postgrafting (D7) at the rate of 3 injections per week (Monday, Wednesday and Friday) for 3 consecutive weeks and at a dose of 5 mg/kg.
The decreases (−) or the increases (+) in the area of the HI-MXT tumours induced with treatments 1 and 2 with respect to the control condition on the 21st day after the tumour grafting, i.e. after 6 administrations of the product CRL 8293 or of the product CRL 8294, are shown, as percentage, in the following Table II. 100% of the control animals are still alive on the 21st day postgrafting.

[1] = system: 12 human cancer cell lines (U-373MG, U-87MG, SW1088, A549, A-427, HCT-15, LoVo, T-47D, MCF7, J82, T24, PC-3); test: Cytotoxic activity on tumour cell lines in culture (MTT test); format: cell-based; conditions: mean IC50 calculated from the individual cytotoxic activities on each of the 12 tumour lines, 72 hours incubation
Method: 1—Cytotoxic Activity on Tumour Cell Lines in Culture (MTT Test)
The influence of the compounds of formula (I) and of (Ia) on tumour cells was evaluated using the MTT calorimetric test (T. Mosman, J. Immunol. Methods, 1983; 65: 55-63, J. Carmichael et al., Cancer Res. 1987; 47: 936-942).
The principle of the MTT test is based on the mitochondrial reduction by metabolically active alive cells of the yellow-coloured product MTT (3-(4,5-dimethylthiazol-2-yl)-2,5-diphenyltetrazolium bromide) to a blue-coloured product, formazan. The amount of formazan thus obtained is directly proportional to the amount of live cells present in the culture well or wells. This amount of formazan is measured by spectrophotometry.
The cell lines are maintained in monolayer culture at 37° C. in stoppered culture dishes containing 25 MM HEPES MEM (Minimum Essential Medium) base medium. This medium is well suited to the growth of a range of varied diploid or primary mammalian cells. This medium is subsequently supplemented: […]
with an amount of 5% of FCS (Foetal Calf Serum) decomplemented at 56° C. for 1 hour, with 0.6 mg/ml of L-glutamine, with 200 IU/ml of penicillin, with 200 μg/ml of streptomycin, with 0.1 mg/ml of gentamicin.
The 12 human cancer cell lines which were used were obtained from the American Type Culture Collection (ATCC, Rockville, Md., USA). These 12 cell lines are:
U-373MG (ATCC code: HTB-17) and U-87MG (ATCC code: HTB-14), which are two glioblastomas, SW1088 (ATCC code: HTB-12) which is an astrocytoma, A549 (ATCC code: CCL-185) and A-427 (ATCC code: HTB-53), which are two non-small-cell lung cancers, HCT-15 (ATCC code: CCL-225) and LoVo (ATCC code: CCL-229), which are two colorectal cancers, T-47D (ATCC code: HTB-133) and MCF7 (ATCC code: HTB-22), which are two breast cancers, J82 (ATCC code: HTB-1) and T24 (ATCC code: […]), which are two bladder cancers, PC-3 (ATCC code: CRL-1435), which is a prostate cancer.
Experimentally: 100 μl of a cell suspension comprising 20 000 to 50 000 (depending on the cell type used) cells/ml of culture medium are inoculated in flat-bottomed 96-well multi-well plates and are incubated at 37° C. under an atmosphere comprising 5% of CO2 and 70% humidity. After incubating for 24 hours, the culture medium is replaced with 100 μl of fresh medium comprising either the various test compounds at concentrations varying from 10^−5 to 10^−10 M of the solvent used to dissolve the -test products (control condition). After incubating for 72 hours under the above conditions, the culture medium is replaced with 100 μl of a yellowish solution of MTT dissolved, in a proportion of 1 mg/ml, in RPMI 1640. The microplates are reincubated for 3 hours at 37° C. and then centrifuged for 10 minutes at 400 g. The yellowish MTT solution is removed and the blue formazan crystals formed at the cellular level are dissolved in 100 μl of DMSO. The microplates are subsequently agitated for 5 minutes. The intensity of the resulting blue coloration, and thus of the conversion of the yellow MTT product into blue formazan by the cells which are still alive at the end of the experiment, is quantified by spectrophotometry using a device of DYNATECH IMOASSAY SYSTEM type at wavelengths of 570 nm and 630 nm corresponding respectively to the maximum absorption wavelengths of formazan and to the background noise. Software built into the spectrophotometer calculates the mean optical density values and the standard deviation (Std. Dev.) and standard error of the mean (SEM) values.
The inhibitory activity on the cell growth of the compounds of formula (I) and (Ia) on the various tumour cell lines was measured in comparison with that of the natural product.

SMILES | growth of the HI-MXT tumours (in words) (HI-MXT tumours) | Tumour area (expressed as %) (HI-MXT tumours) [%] | IC50 ([1]; Homo sapiens) [µM] | IC50 [1] [µM]
O=C1c2cccnc2-c2nccc3ccnc1c23 [CRL 8293, 7H-Pyrido[4,3,2-de][1,10]phenanthroline-7-one] | significant decrease | −33 | 1.25 | –
O=C1c2ncccc2-c2nccc3ccnc1c23 [CRL 8294, 7H-Pyrido[4,3,2-de][1,7phenanthroline-7-one] | significant decrease | −36 | – | 1.45
